Data: patent US20070259959A1, “Ppar Agonists for the Treatment of Hcv Infection” (priority 2003, published 2007)

Test system: HCV
Test: Inhibition of HCV infection of cultured human hepatocytes (quantitative RT-PCR of HCV RNA)
Type: cell-based
Settings: cultured human hepatocytes infected with infectious human serum; fenofibric acid tested at 50 μM and 500 μM; HCV RNA copies/350,000 cells four days after infection; 0.5% DMSO
Experimental: Isolated human hepatocytes from surgical liver resection were seeded in 24 well microplates at the density of 3×10^5 cells/well. Cells were allowed to attach and recover 24 hours and then medium was replaced with a fresh one containing different concentrations of fenofibric acid (50 μM and 500 μM). Hepatocytes were incubated 24 hours with the indicated amounts of fenofibric acid, then medium was replaced with fresh one containing the same amounts of fenofibric acid and a fixed amount (100 μl) of an infectious human serum from a patient chronically infected with HCV. Cells were incubated 18 hours with the virus to allow infection, then washed and incubated for four days. Total RNA was extracted and viral replication was measured by quantitative RT-PCR.
Typically, 10^4 to 10^5 copies of genomes per well are detected after four days from infection. To be sure that the measured viral RNA derived from active replication, a small molecule inhibitor of the viral replicase was included as a positive control.
Viral replication was measured on total RNA by quantitative PCR and expressed as number of HCV copies/350,000 cells. The experiment was performed in triplicate wells and values are shown with standard deviations. Fenofibric acid was dissolved in DMSO and tested at 50 μM and 500 μM. […]

## CC(C)(Oc1ccc(C(=O)c2ccc(Cl)cc2)cc1)C(=O)O [fenofibric acid]
  reduction of HCV infectivity: up to 90%
